The first test concerns T125A mutant virus (HIV-1 NL-432 recombinant molecular clone, IN gene). Put plainly: HIV replication inhibition assay against integrase 124/125 mutant virus (Test Example 2). In kind it is cell-based. The note with it: Human immunodeficiency virus 1, MT4, read-out: EC50 against T125A mutant virus, T125A mutant virus (HIV-1 NL-432 IN gene), MT-4 cells, MTT. The method, then:
Persistently HIV (HTLV-IIIB strain) infected human T cell strain Molt-4 clone8 was cultured in RPMI-1640 medium supplemented with 10% fetal bovine serum and the supernatant was filtered, then the virus titer was measured and stored at −80° C. Polymorphic mutations in HIV-1-infected patients have been observed in amino acids 124 and 125 on the HIV-1 integrase (IN) gene. A point mutation was introduced on the amino acids 124 and/or 125 of IN gene of the HIV-1 NL-432 recombinant molecular clone to generate a mutant virus plasmid construct. These mutant virus plasmids were transfected into 293T cells, and after two days, the supernatant was filtered and then the virus titer was measured and stored at −80° C. Each anti-HIV active substance was diluted with culture medium described above to the designated concentration, which was dispensed into 96-well microtiter plate by 50 μL. Next, 100 μL of MT-4 cell suspension (2.5×10^4 cells) was dispensed into each well, then 50 μl of HIV-containing supernatant diluted with culture medium described above was added thereto (60 pfu (plaque forming unit)).
Cells were cultured at 37° C. in CO2 incubator for four days, then 30 μL of MTT (3-(4,5-dimethylthiazole-2-yl)-2,5-diphenyltetrazolyum bromide) reagent (5 mg/mL in PBS) was added to all wells followed by incubation for 1 hour. In this step, MTT was reduced to insoluble formazan in living cells. To elute generated formazan, 150 μL of the culture supernatant was removed from all wells, then 150 μL of cell lysis solution (10% Triton X-100 and 0.4% (v/v)-HCl containing isopropanol) was added thereto, followed by shaking with a plate mixer. The formazan was measured with micro plate reader at OD: 560 nm and 690 nm (reference wavelength) and the result was compared with the reference wells. EC50 means the compound concentration at which 50% of cytotoxicity caused by virus infection is inhibited.
Usually EC50 stands for the concentration needed to bring the measured effect to its halfway point. For the compound `COC[C@H]1Cn2c(C)cc3c(-c4ccc(Cl)cc4)c([C@H](OC(C)(C)C)C(=O)O)c(C)c(c32)N1S(C)(=O)=O` [Compound I-086], the EC50 was 0.011 µM.
In the case of `CCc1ccc(-c2c([C@H](OC(C)(C)C)C(=O)O)c(C)c3c4c2cc(C)n4CCN3C)cc1` [Compound I-082], the EC50 amounted to 0.0061 µM.
Same read-out and setting: for `Cc1ccc(-c2c([C@H](OC(C)(C)C)C(=O)O)c(C)c3c4c2cc(C)n4CCN3c2ncc(Cl)cn2)cc1` [Compound I-263] the value was 0.0072 µM; for `Cc1c([C@H](OC(C)(C)C)C(=O)O)c(-c2ccc(F)cc2)c2cc(C)n3c2c1N(C)[C@H](C)C3` [Compound I-092], 0.0076 µM; for `Cc1c([C@H](OC(C)(C)C)C(=O)O)c(-c2ccc(Cl)cc2)c2cc(C)n3c2c1N(c1ncc(C2=CCOCC2)cn1)CC3` [Compound I-300], 0.0046 µM.
Turning to `COCC[C@@H]1Cn2c(C)cc3c(-c4ccc(Cl)cc4)c([C@H](OC(C)(C)C)C(=O)O)c(C)c(c32)N1S(C)(=O)=O` [Compound I-108], the EC50 worked out at 0.019 µM.
With `COc1ccc(-c2c([C@H](OC(C)(C)C)C(=O)O)c(C)c3c4c2cc(C)n4CCN3C)cc1` [Compound I-074], the EC50 was 0.027 µM.
Consider `Cc1c([C@H](OC(C)(C)C)C(=O)O)c(-c2ccc(Cl)cc2)c2cc(C)n3c2c1N(CC(F)F)CC3` [Compound I-035], for which the EC50 came to 0.014 µM.
`[2H]C([2H])([2H])N1c2c(C)c([C@H](OC(C)(C)C)C(=O)O)c(-c3ccc(Cl)cc3)c3cc(C)n(c23)C([2H])([2H])C1([2H])[2H]` [Compound I-103]: the EC50 came to 0.0034 µM.
In the case of `Cc1c([C@H](OC(C)(C)C)C(=O)O)c(-c2ccc(Cl)cc2)c2cc(C)n3c2c1N(Cc1cccnc1)CC3` [Compound I-136], the EC50 came out at 0.0084 µM.
As to `Cc1c([C@H](OC(C)(C)C)C(=O)O)c(-c2ccc(Cl)cc2)c2cc(C)n3c2c1N(S(=O)(=O)c1cccnc1)CC3` [Compound I-139], the EC50 is 0.0068 µM.
With `[2H]C1([2H])N(S(C)(=O)=O)c2c(C)c([C@H](OC(C)(C)C)C(=O)O)c(-c3ccc(Cl)cc3)c3c(F)c(C)n(c23)C1([2H])[2H]` [Compound I-040], the 50% effective concentration (EC50) amounted to 0.011 µM.
Regarding `Cc1c([C@H](OC(C)(C)C)C(=O)O)c(-c2ccc(Cl)cc2)c2cc(C)n3c2c1N(S(C)(=O)=O)[C@@H](C(F)F)C3` [Compound I-088], the EC50 came out at 0.027 µM.
In the case of `COC(=O)N1CCn2c(C)cc3c(-c4ccc(F)cc4)c([C@H](OC(C)(C)C)C(=O)O)c(C)c1c32` [Compound I-132], the EC50 stood at 0.028 µM.
For the compound `Cc1c([C@H](OC(C)(C)C)C(=O)O)c(-c2ccc(Cl)cc2)c2cc(C)n3c2c1N(CCN(C)C)[C@@H](C)C3` [Compound I-113], the EC50 amounted to 0.022 µM.
Turning to `Cc1c([C@H](OC(C)(C)C)C(=O)O)c(-c2ccc(Cl)cc2)c2cc(C)n3c2c1N(c1ccc(F)cn1)CC3` [Compound I-154], the EC50 came to 0.013 µM.
With `COC[C@@H]1Cn2c(C)cc3c(-c4ccc(Cl)cc4)c([C@H](OC(C)(C)C)C(=O)O)c(C)c(c32)N1S(C)(=O)=O` [Compound I-087], the EC50 is 0.02 µM.
The same measure, in the same setting: for `Cc1c([C@H](OC(C)(C)C)C(=O)O)c(-c2ccc(Cl)cc2)c2cc(C)n3c2c1N(c1ncc(OCc2ccc(F)cc2)cn1)CC3` [Compound I-236] the value was 0.0099 µM; for `Cc1c([C@H](OC(C)(C)C)C(=O)O)c(-c2ccc(Cl)cc2)c2cc(C)n3c2c1N(S(C)(=O)=O)[C@@H](CCN1CCOCC1)C3` [Compound I-045], 0.058 µM; for `COc1cnc(N2CCn3c(C)c(Cl)c4c(-c5ccc(C)cc5)c([C@H](OC(C)(C)CO)C(=O)O)c(C)c2c43)nc1` [Compound I-324], 0.063 µM.
Turning to `[2H]C([2H])([2H])N1c2c(C)c([C@H](OC(C)(C)C)C(=O)O)c(-c3ccc(F)cc3)c3cc(C)n(c23)C([2H])([2H])C1([2H])[2H]` [Compound I-106], the EC50 came out at 0.011 µM.
Same read-out and setting: for `Cc1c([C@H](OC(C)(C)C)C(=O)O)c(-c2ccc(Cl)cc2)c2cc(C)n3c2c1N(C)CCC3` [Compound I-079] the value was 0.017 µM; for `Cc1c([C@H](OC(C)(C)C)C(=O)O)c(-c2ccc(Cl)cc2)c2cc(C)n3c2c1N(c1ccncc1)CC3` [Compound I-155], 0.058 µM.
For the compound `Cc1c([C@H](OC(C)(C)C)C(=O)O)c(-c2ccc(Cl)cc2)c2cc(C)n3c2c1N(S(C)(=O)=O)[C@@H](C)C3` [Compound I-036], the EC50 amounted to 0.0065 µM.
Still for that read-out and setting: for `Cc1c([C@H](OC(C)(C)C)C(=O)O)c(-c2ccc(Cl)cc2)c2cc(C)n3c2c1NC(=O)C3C` (stereo partly shown) [Compound I-054] the value was 0.048 µM; for `CCOC(=O)N1CCn2c(C)cc3c(-c4ccc(Cl)cc4)c([C@H](OC(C)(C)C)C(=O)O)c(C)c1c32` [Compound I-064], 0.019 µM; for `COc1ccnc(N2CCn3c(C)cc4c(-c5ccc(C)cc5)c([C@H](OC(C)(C)C)C(=O)O)c(C)c2c43)c1` [Compound I-277], 0.014 µM.
On the same count and under the same terms, for `C=CCN1CCn2c(C)cc3c(-c4ccc(C)cc4)c([C@H](OC(C)(C)C)C(=O)O)c(C)c1c32` [Compound I-294] the value was 0.016 µM.
For `Cc1c([C@H](OC(C)(C)C)C(=O)O)c(-c2ccc(Cl)cc2)c2cc(C)n3c2c1N(Cc1ccccc1)CC3` [Compound I-107], the EC50 stood at 0.025 µM.
For `Cc1c([C@H](OC(C)(C)C)C(=O)O)c(-c2cc(F)c(Cl)c(F)c2)c2cc(C)n3c2c1N(C)CC3` [Compound I-073], the EC50 was 0.039 µM.
Turning to `CC(=O)N1c2c(C)c([C@H](OC(C)(C)C)C(=O)O)c(-c3ccc(Cl)cc3)c3cc(C)n(c23)C[C@H]1C` [Compound I-061], the EC50 was found to be 0.0096 µM.
As for `Cc1c([C@H](OC(C)(C)C)C(=O)O)c(-c2ccc(Cl)cc2)c2cc(C)n3c2c1N(C(=O)C1CC1)[C@@H](C)C3` [Compound I-070], the EC50 stood at 0.043 µM.
As for `Cc1c([C@H](OC(C)(C)C)C(=O)O)c(-c2ccc(F)cc2)c2cc(C)n3c2c1N(C)[C@@H](C)C3` [Compound I-093], the EC50 was determined as 0.016 µM.
As to `CC(=O)N(C)CCN1CCn2c(C)cc3c(-c4ccc(C)cc4)c([C@H](OC(C)(C)C)C(=O)O)c(C)c1c32` [Compound I-141], the EC50 was 0.041 µM.
For the compound `Cc1ccc(-c2c([C@H](OC(C)(C)C)C(=O)O)c(C)c3c4c2cc(C)n4CCN3c2ncc(Oc3cccnn3)cn2)cc1` [Compound I-342], the EC50 came out at 0.013 µM.
Consider `[2H]C1([2H])N(C)c2c(C)c([C@H](OC(C)(C)C)C(=O)O)c(-c3ccc(Cl)cc3)c3cc(Cl)n(c23)C1([2H])[2H]` [Compound I-115], for which the EC50 worked out at 0.011 µM.
For the compound `Cc1c([C@H](OC(C)(C)C)C(=O)O)c(-c2ccc(Cl)cc2)c2cc(C)n3c2c1N(S(C)(=O)=O)[C@H](C)C3` [Compound I-060], the 50% effective concentration (EC50) was found to be 0.014 µM.
As to `Cc1ccc(-c2c([C@H](OC(C)(C)C)C(=O)O)c(C)c3c4c2cc(Br)n4CCN3C)cc1` [Compound I-081], the EC50 was 0.0096 µM.
Turning to `[2H]C1([2H])N(C(=O)OC)c2c(C)c([C@H](OC(C)(C)C)C(=O)O)c(-c3ccc(Cl)cc3)c3cc(C)n(c23)C1([2H])[2H]` [Compound I-097], the EC50 amounted to 0.0097 µM.
Consider `Cc1c(F)cc(-c2c([C@H](OC(C)(C)C)C(=O)O)c(C)c3c4c2cc(C)n4CCN3C)cc1F` [Compound I-051], for which the EC50 was determined as 0.022 µM.
With `Cc1c([C@H](OC(C)(C)C)C(=O)O)c(-c2ccc(F)cc2)c2cc(C)n3c2c1N(S(C)(=O)=O)CC3` [Compound I-096], the EC50 was 0.019 µM.

Staying with this test, now noted: T125A mutant virus (HIV-1 NL-432 IN gene), MT-4 cells, MTT; read-out: EC50 against T125A mutant virus.
Regarding `CC(=O)Nc1cnc(N2CCn3c(C)cc4c(-c5ccc(C)cc5)c([C@H](OC(C)(C)C)C(=O)O)c(C)c2c43)nc1` [Compound I-202], the EC50 turned out to be 0.056 µM.
On to `Cc1ccc(-c2c([C@H](OC(C)(C)C)C(=O)O)c(C)c3c4c2cc(C)n4CCN3c2ncc(N(C)S(C)(=O)=O)cn2)cc1` [Compound I-201], for which the half-maximal effective concentration (EC50) is 0.014 µM.
Consider `COc1cnc(N2CCn3c(C)cc4c(-c5ccc(Cl)cc5)c([C@H](OC(C)C)C(=O)O)c(C)c2c43)nc1` [Compound I-215], for which the EC50 amounted to 0.047 µM.

The test is the same for the next values; noted with them: read-out: EC50 against T125A mutant virus; T125A mutant virus (HIV-1 NL-432 IN gene), MT-4 cells, MTT.
For the compound `Cc1c([C@H](OC(C)(C)C)C(=O)O)c(-c2ccc(Cl)cc2)c2cc(C)n3c2c1N(C)CC3C` (stereo partly shown) [Compound I-090], the EC50 is 0.039 µM.
Consider `COC(=O)N1CC(C)n2c(C)cc3c(-c4ccc(Cl)cc4)c([C@H](OC(C)(C)C)C(=O)O)c(C)c1c32` (stereo partly shown) [Compound I-120], for which the EC50 came out at 0.052 µM.
Turning to `Cc1c([C@H](OC(C)(C)C)C(=O)O)c(-c2ccc(Cl)cc2)c2cc(C)n3c2c1N(S(C)(=O)=O)CC3C` (stereo partly shown) [Compound I-063], the EC50 came out at 0.0045 µM.
Take `Cc1c([C@H](OC(C)(C)C)C(=O)O)c(-c2ccc(Cl)cc2)c2cc(C)n3c2c1N(S(C)(=O)=O)CC3C` (stereo partly shown) [Compound I-062]: the EC50 was found to be 0.034 µM.
The same measure, in the same setting: for `Cc1c([C@H](OC(C)(C)C)C(=O)O)c(-c2ccc(F)cc2)c2cc(C)n3c2c1N(C)CC3C` (stereo partly shown) [Compound I-134] the value was 0.0084 µM.

The record behind these values is US10494380B2, “Nitrogen-containing tricyclic derivatives having HIV replication inhibitory activity” (priority 2015, dated 2019).
